Assay results taken from the CombiSolv-Exp solvation set (Vermeire and Green 2021).
One block for each molecule: values may come before it.

Assay: solvent given as SMILES

solvation free energy, 298 K (in O): -8.85 kcal/mol
SMILES: CCCCCCCC(=O)c1c(C)[nH]n(-c2ccccc2)c1=O

SMILES: COc1cc(C(C)=O)cc(-c2cc(C(C)=O)cc(OC)c2O)c1O
solvation free energy, 298 K (in CCC(C)=O): -21.7 kcal/mol
solvation free energy, 298 K (in CCCO): -21.1 kcal/mol
solvation free energy, 298 K (in Cc1ccccc1): -20.8 kcal/mol
solvation free energy, 298 K (in ClC=CCl): -22 kcal/mol
solvation free energy, 298 K (in O): -19.2 kcal/mol

SMILES: C=CCCCCCCCC
solvation free energy, 298 K (in CN(C)C=O): -5.12 kcal/mol
solvation free energy, 298 K (in O): 2.24 kcal/mol
solvation free energy, 298 K (in OCCOCCO): -3.32 kcal/mol
solvation free energy, 298 K (in OCCOCCOCCO): -3.58 kcal/mol
solvation free energy, 298 K (in OCCOCCOCCOCCO): -3.78 kcal/mol

SMILES: COC(=O)c1cc(OC)c(O)c(-c2cc(C(=O)OC)cc(OC)c2O)c1
solvation free energy, 298 K (in CCC(C)=O): -20.8 kcal/mol
solvation free energy, 298 K (in CCCO): -20.8 kcal/mol
solvation free energy, 298 K (in ClC=CCl): -21.7 kcal/mol
solvation free energy, 298 K (in O): -17.3 kcal/mol

solvation free energy, 298 K (in O): -2.28 kcal/mol
SMILES: CCCOC(=O)CCC

solvation free energy, 298 K (in O): -1.12 kcal/mol
SMILES: COC(F)(F)C(Cl)Cl

SMILES: Clc1cc(Cl)c2c(c1Cl)Oc1ccccc1O2
solvation free energy, 298 K (in O): -4.05 kcal/mol

solvation free energy, 298 K (in O): -5.05 kcal/mol
SMILES: CN(C)Cc1ccccc1

SMILES: N#Cc1ccc(O)cc1
solvation free energy, 298 K (in O): -10.2 kcal/mol

solvation free energy, 298 K (in O): -6.71 kcal/mol
SMILES: CCCCOC(=O)c1ccccc1C(=O)OC(CC)CCCC (stereo not given)

SMILES: [N-]=[N+]=O
solvation free energy, 298 K (in CC(C)=O): -1.05 kcal/mol
solvation free energy, 298 K (in CC(C)CC(C)(C)C): -0.69 kcal/mol
solvation free energy, 298 K (in CC(C)O): -0.48 kcal/mol
solvation free energy, 298 K (in CCC(C)=O): -0.94 kcal/mol
solvation free energy, 298 K (in CCCCCC): -0.74 kcal/mol
solvation free energy, 298 K (in CCCCCCC): -0.65 kcal/mol
solvation free energy, 298 K (in CCCCCCCC): -0.6 kcal/mol
solvation free energy, 298 K (in CCCCCCCCCC): -0.49 kcal/mol
solvation free energy, 298 K (in CCCCCCCCCCO): -0.55 kcal/mol
solvation free energy, 298 K (in CCCCCCCCO): -0.45 kcal/mol
solvation free energy, 298 K (in CCCCCCO): -0.49 kcal/mol
solvation free energy, 298 K (in CCCCCO): -0.5 kcal/mol
solvation free energy, 298 K (in CCCCO): -0.55 kcal/mol
solvation free energy, 298 K (in CCCCOC(C)=O): -0.98 kcal/mol
solvation free energy, 298 K (in CCCO): -0.59 kcal/mol
solvation free energy, 298 K (in CCO): -0.61 kcal/mol
solvation free energy, 298 K (in CO): -0.69 kcal/mol
solvation free energy, 298 K (in COC(C)=O): -1.09 kcal/mol
solvation free energy, 298 K (in ClC(Cl)(Cl)Cl): -0.86 kcal/mol
solvation free energy, 298 K (in ClC(Cl)Cl): -0.97 kcal/mol
solvation free energy, 298 K (in Clc1ccccc1): -0.68 kcal/mol
solvation free energy, 298 K (in O): 0.31 kcal/mol

SMILES: CCC=O
solvation free energy, 298 K (in C1CCOC1): -3.82 kcal/mol
solvation free energy, 298 K (in C=CCCCCCCCCCCCCCC): -2.47 kcal/mol
solvation free energy, 298 K (in CC(C)CCCC(C)CCCC(C)CCCCC(C)CCCC(C)CCCC(C)C): -2.57 kcal/mol
solvation free energy, 298 K (in CCC(C)=O): -3.85 kcal/mol
solvation free energy, 298 K (in CCCCCCCC): -2.54 kcal/mol
solvation free energy, 298 K (in CCCCCCCCCCCCCCCC): -2.41 kcal/mol
solvation free energy, 298 K (in CCCCCCCCO): -4.15 kcal/mol
solvation free energy, 298 K (in NC=O): -3.26 kcal/mol
solvation free energy, 298 K (in O): -3.35 kcal/mol
solvation free energy, 298 K (in [2H]O[2H]): -3.31 kcal/mol

SMILES: Sc1ccccc1
solvation free energy, 298 K (in O): -2.55 kcal/mol

solvation free energy, 298 K (in O): -9.61 kcal/mol
SMILES: O=C1NC(=O)c2ccccc21

SMILES: Clc1ccccc1
solvation free energy, 298 K (in C1CCOC1): -6.04 kcal/mol
solvation free energy, 298 K (in C1COCCO1): -5.78 kcal/mol
solvation free energy, 298 K (in CC(=O)N(C)C): -5.01 kcal/mol
solvation free energy, 298 K (in CC(C)(C)O): -5.03 kcal/mol
solvation free energy, 298 K (in CC(C)=O): -5.65 kcal/mol
solvation free energy, 298 K (in CC(C)CC(C)(C)C): -4.92 kcal/mol
solvation free energy, 298 K (in CC(C)CCO): -5.12 kcal/mol
solvation free energy, 298 K (in CC(C)CO): -5.09 kcal/mol
solvation free energy, 298 K (in CC(C)O): -4.92 kcal/mol
solvation free energy, 298 K (in CC(O)CO): -4.36 kcal/mol
solvation free energy, 298 K (in CCC(C)O): -5.09 kcal/mol
solvation free energy, 298 K (in CCCCCC): -5.21 kcal/mol
solvation free energy, 298 K (in CCCCCCC): -5.17 kcal/mol
solvation free energy, 298 K (in CCCCCCCCCC): -4.93 kcal/mol
solvation free energy, 298 K (in CCCCCCCCCCCCCCCC): -4.94 kcal/mol
solvation free energy, 298 K (in CCCCCO): -5.21 kcal/mol
solvation free energy, 298 K (in CCCCCl): -5.59 kcal/mol
solvation free energy, 298 K (in CCOC(C)=O): -5.66 kcal/mol
solvation free energy, 298 K (in CN(C)C=O): -5.66 kcal/mol
solvation free energy, 298 K (in CNC(C)=O): -5.17 kcal/mol
solvation free energy, 298 K (in CO): -5.01 kcal/mol
solvation free energy, 298 K (in COCCO): -5.23 kcal/mol
solvation free energy, 298 K (in Cc1ccc(C)cc1): -5.52 kcal/mol
solvation free energy, 298 K (in Cc1ccccc1C): -5.59 kcal/mol
solvation free energy, 298 K (in ClCCl): -5.91 kcal/mol
solvation free energy, 298 K (in N#Cc1ccccc1): -5.63 kcal/mol
solvation free energy, 298 K (in NC=O): -3.58 kcal/mol
solvation free energy, 298 K (in O): -1.14 kcal/mol
solvation free energy, 298 K (in OCCO): -3.88 kcal/mol

solvation free energy, 298 K (in C1CCOC1): -6.93 kcal/mol
solvation free energy, 298 K (in CC#N): -5.86 kcal/mol
solvation free energy, 298 K (in CC(C)O): -5.63 kcal/mol
solvation free energy, 298 K (in CO): -5.52 kcal/mol
solvation free energy, 298 K (in O): -0.42 kcal/mol
SMILES: CC(C)(C)c1ccccc1

solvation free energy, 298 K (in O): -3.2 kcal/mol
SMILES: CC1CCC(C(C)C)C(O)C1 (stereo not given)
